Data taken from article PMC6491988, “Distinct Lipid Transfer Proteins display different IgE‐binding activities that are affected by fatty acid binding” (Allergy, 2018).

Assays:
rMal d 3 = target: T1, rMal d 3 (Malus domestica, UniProt Q9M5X7); assay: ANS displacement fluorescence; assay type: binding; details: 50 μmol/L ligand, protein:ligand 1:5
T1 construct: gene MALD3; recombinant, produced in Pichia pastoris, purified
T1 sequence (Q9M5X7 25-115): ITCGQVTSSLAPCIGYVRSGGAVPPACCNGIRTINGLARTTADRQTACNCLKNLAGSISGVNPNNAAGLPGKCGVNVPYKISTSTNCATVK

rCor a 8 = target: T2, rCor a 8 (Corylus avellana, UniProt Q9ATH2); assay: ANS displacement fluorescence; assay type: binding; details: 50 μmol/L ligand, protein:ligand 1:5
T2 construct: recombinant, produced in Pichia pastoris, purified
T2 sequence (Q9ATH2 24-115): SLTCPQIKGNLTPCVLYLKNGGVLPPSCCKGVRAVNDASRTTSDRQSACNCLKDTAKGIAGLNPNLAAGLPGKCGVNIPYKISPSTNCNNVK

SMILES | % reduction of ANS fluorescence at 50 μmol/L (rMal d 3) [%] | % reduction of ANS fluorescence at 50 μmol/L (rCor a 8) [%]
CCCCCCCC/C=C\CCCCCCCC(=O)O [OLE, oleic acid] | 59 | 23
CCCCCCCCCCCCCCCCCC(=O)O [STE, stearic acid] | 17 | 
